# Reference: patent US20130190275A1, “COMBINED THERAPIES OF ANTIPSYCHOTIC DRUGS AND TETRACYCLINES IN THE TREATMENT OF PSYCHIATRIC DISORDERS” (MOR RESEARCH APPLICATIONS LTD., priority 2006, published 2013)
# How the values were obtained:
# [1] = system: MK801 treated rats; experiment: Pre-Pulse Inhibition (PPI) paradigm, MK801 animal model; type: in vivo, rat
# Procedure: Acoustic Startle Response (ASR) and Pre-Pulse Inhibition (PPI): Both experimental paradigms were performed in a room that was adjacent to the laboratory facilities and the animal stall and that was not used for other experiments. The animals were tested in squad of two with startle chambers counterbalanced across the different experimental groups. Startle response and prepulse inhibition were measured using two ventilated startle chambers (SR-LAB system, San Diego Instruments, San Diego, Calif.). Each chamber consisted of a Plexiglas cylinder resting on a platform inside a sound-attenuated, ventilated chamber. A high-frequency loudspeaker inside the chamber produced both a continuous broadband background noise of 70 dB and the various acoustic stimuli. Movement inside the tube was detected by a piezoelectric accelerometer below the frame. The amplitude of the whole body startle to an acoustic pulse was defined as the average of 100 one-msec accelerometer readings collected from pulse onset. These signals were then digitized and stored by a computer. Sound levels within each test chamber were measured routinely using a sound level meter (Radio Shack) to ensure consistent presentation. The SR-LAB calibration unit was used routinely to ensure consistent stabilimeter sensitivity between test chambers and over time (Swerdlow and Geyer, 1998, Schizophrenia Bulletin, 24(2), 285-301).
# Fifteen minutes before the behavioral procedures conducted at the fourth day, the subject was injected i.p. with an 0.1 mg/kg dose of MK801 or saline, for a total volume of 1 ml per kg of body weight. Next, the subjects passed the three behavioral procedures, described in the following paragraphs.
# ASR and PPI were measured using two startle chambers, with each chamber consisting of a Plexiglas cylinder resting on a platform inside a sound-attenuated, ventilated chamber (see also materials section). The animals were tested in pairs with startle chambers counterbalanced across the different experimental groups.
# PPI of the startle response was used as a measure of sensorimotor gating, with the startle chambers used to assess the ability of prepulse stimuli to block the startle response. […]
# Pre-Pulse Inhibition (PPI): Startle magnitude is expressed in all the procedures as arbitrary units. Percent PPI (% PPI) was calculated as the mean startle magnitude to stimulus-alone minus the mean startle magnitude to prepulse-stimulus trials, all divided by the mean stimulus-alone trials, and multiplied by 100. The overall mean % PPI was calculated for the four prepulse intensities (72, […], 80, 84 dB). Results were analyzed by two-way ANOVA with a between-subject measure of ‘group’ (difference the treatment groups) and ‘prepulse intensity’ (72, 76, 80, 84 dB).
# [2] = system: patients who experience first psychotic episode; experiment: CANTAB Stockings of Cambridge (SOC), adjuvant study; type: in vivo, human; details: atypical antipsychotic drug+minocycline 200 mg/day vs +placebo; p=0.001
# Procedure: The study was carried out in patients who experience first psychotic episode, and has followed the patient for a total duration of 6 months. As the study examines Minocycline as an adjuvant drug, the sample includes patients receiving one of the following atypical anti-psychotic drugs: Risperdal, Zyprexa, Geodon, Seroquel, and Leponex. […] In addition, the subjects were assessed by a battery of computerized neuropsychological tests (CANTAB—Cambridge Neuropsychological Test Automated Battery), measuring attention, memory, and planning. Executive function was tested by two tasks of the CANTAB: planning was tested by a computerized modification of the Tower of London, and working memory by a spatial working memory task. Minocycline was given as an add-on therapy. […] Clinical status was evaluated by the aforementioned scales at the onset of the study, every week for the first 6 weeks, and then once a month for the rest of the study period. Cognitive capabilities were assessed by the neuropsychological battery of tests according to the following schedule: upon initiation of the study (referred to as visit 1 in FIGS. 5-8), 3 months (referred to as visit 2 in FIGS. 5-8), and 6 months (referred to as visit 3 in FIGS. 5-8) after the start of the study. […]
# [3] = system: patients who experience first psychotic episode; experiment: SANS (Scale for the Assessment of Negative Symptoms), adjuvant study; type: in vivo, human; details: atypical antipsychotic drug+minocycline 200 mg/day vs +placebo; group x time p<0.01
# Procedure: The study was carried out in patients who experience first psychotic episode, and has followed the patient for a total duration of 6 months. As the study examines Minocycline as an adjuvant drug, the sample includes patients receiving one of the following atypical anti-psychotic drugs: Risperdal, Zyprexa, Geodon, Seroquel, and Leponex. […] Initial evaluation included the following clinical measures: • SCID (for reliability of diagnosis) • CGI (Clinical Global Impression) • PANSS (Positive and Negative Syndrome Scale for Schizophrenia) • SANS (Scale for the Assessment of Negative Symptoms) • Calgary Depression Scale for Schizophrenia • GAF • GRAF • Insight and Treatment Attitudes Questionnaire • QLS (Quality of Life Scale) • Multinomah Community Ability Scale • Extrapyramidal Side Effects Scale. Minocycline was given as an add-on therapy. […] Clinical status was evaluated by the aforementioned scales at the onset of the study, every week for the first 6 weeks, and then once a month for the rest of the study period. Cognitive capabilities were assessed by the neuropsychological battery of tests according to the following schedule: upon initiation of the study (referred to as visit 1 in FIGS. 5-8), 3 months (referred to as visit 2 in FIGS. 5-8), and 6 months (referred to as visit 3 in FIGS. 5-8) after the start of the study. […]
structure (smiles),measurement,setting,value
CN(C)c1ccc(O)c2c1C[C@H]1C[C@H]3[C@H](N(C)C)C(O)=C(C(N)=O)C(=O)[C@@]3(O)C(O)=C1C2=O [minocycline],percent of PPI (% PPI),"[1]; drug+MK801 0.1 mg/kg i.p., minocycline 35 mg/kg x 3 days pretreatment, haloperidol 0.4 mg/kg i.p.",able to reverse the deficits caused by the MK801 treatment
same,percent of PPI (% PPI),[1]; minocycline alone (no MK801) vs saline,no statistically significant differences
same,SOC number of problems solved in minimum moves,[2],improved significantly more than the placebo group
same,total SANS score,[3],greater improvement than the placebo group
